Data set [1] can be described thus: Stability of deprenyl as a function of the pH of the medium. It counts as physicochemical. The settings on record: pH about 3-5 versus pH about 7. The text has this:
The stability of deprenyl can be affected by the pH of the medium in which the deprenyl is formulated. […] Therefore, when formulating a deprenyl compound in a pharmaceutical composition, it is preferred that the deprenyl compound be maintained at a suitable pH. In preferred embodiments, a pharmaceutical composition of the invention has a pH in the range of about 3 to about 5, more preferably about 3 to about 4. Furthermore, ethyl alcohol is a preferred solvent for improving stability of deprenyl. Thus, in certain embodiments, alcoholic or aqueous alcoholic media are preferred for the pharmaceutical compositions of the invention.

Data set [2] relates to retinal ganglion cells projecting to the superior colliculus (RGC^SCs) / RGCL neuronal cell bodies. Briefly: Optic nerve crush in rats: counts of Nissl-stained and Fluoro-Gold-labelled cell bodies in the retinal ganglion cell layer. The settings on record: for counts of RGCL neuronal cell bodies (RGCLncbs) per mm length of retinal cross-section: Nissl stain, FIG. 1. The format is in vivo. The text has this: All animals were handled according to the Declaration of Helsinki and The Guiding Principles in the Care and Use of Animals. […] The injections were delivered from a 10 microliter Hamilton syringe over a period of fifteen minutes.
It has been reported that 40-50% of the neurons whose cell bodies are located in the retinal ganglion cell layer (RGCL) of the rat send an axon to the optic nerve and are RGCs (Cowey et al. (1979) Exp. Brain Res. 35, 457-64; Perry V. H. (1981) Neuroscience 6, 931-44: and Linden et al. (1989) Brain Res. 272, 145-149). […] Most RGCs (>95%) in rats send their axons to the SC with as many as 10% also sending branches to the lateral geniculate body (Cowey et al. (1979) Exp. Brain Res. 35, 457-64).
Four days were allowed for the retrograde transport of the FG to the RGC^SCs cell bodies and then the left optic nerve of the rats was exposed and crushed by applying the tips of Dumont number 5 forceps to the nerve immediately behind the globe for ten seconds. Careful attention was used to avoid the central retinal artery. Each nerve was crushed three times at the same site. Following the crushes, the nerve was examined with the aid of an operating microscope to ensure that the axonal component of the nerve was divided into two clearly separated stumps surrounded by an unbroken dural sheath. Retinal artery patency was confirmed by direct ophthalmoscopy.
One group of eight rats received (−)-deprenyl (1 mg/kg) by intraperitoneal (IP) injection every two days for a fourteen day period beginning at the time of optic nerve crush. The remaining group of eight rats received IP injections of saline on the same schedule. Fourteen days after the optic nerve crush all sixteen rats were euthanized with an overdose of somnotol and perfused transcardially with 4% paraformaldehyde in phosphate buffer. The brains and retinas were immersed in 20% sucrose for twenty four hours and then frozen in −70 degrees C methylbutane. Serial […] sections were cut through the upper brain stem and diencephalon of the animals and viewed under fluorescence microscopy to determine the location and extent of the stereotactic injections of FG. Serial […] sections of the retinas were cut and every third section was Nissl stained. In order to detect even low level FG fluorescence in neuronal cell bodies or processes, the FG labelled brain sections and the retinal sections were examined with the aid of a Hamarmatsu intensification camera that allowed the fluorescent images to be digitized using a Matrox frame grabber controlled by image analysis software (Universal Metamorph). This allowed for the creation of computer images of neuronal cell bodies containing FG in the sections taken from areas of the stereotactic injections and sections taken through each of the retinas.
About 25 sections were chosen randomly from the serial sections taken from each retina. Sections were only chosen from the middle 70% of the serial sections where section length exceeded 6 mm. Nissl stained cell bodies in the RGCL were counted at 1000× magnification under oil immersion on a Leitz Orthoplan microscope. RGCL somata were only counted if they contained a well defined nucleus. The cross sectional length of the ganglion cell layer for each section was measured by transferring the retinal section image into a computer using a CCD camera (Dage Ltd.) and IPPLUS 2.1 software (Media Cybernetics). The number of RGCL neuronal cell bodies (RGCLncbs) per mm length of retinal crossection was calculated and were pooled for each of the four lesion/treatment groups (uncrushed-saline, uncrushed-deprenyl, crushed-saline and crushed-deprenyl).
A similar group of sections were randomly chosen from one of the two remaining series of retinal sections. […]

Another data set has as its system cell death. The data set can be described thus: Animal and cell-culture studies of prevention of cell death with the P450 inhibitor Proadifen. Conditions: co-administration of the P450 inhibitor Proadifen. The text has this: It is believed that certain deprenyl compounds can be at least partially metabolized in vivo after administration to a subject. For example, (−)-deprenyl can be metabolized by the liver to (−)-desmethyldeprenyl, as well as (−)-methamphetamine and (−)-amphetamine, after oral administration. The hepatic metabolism of (−)-deprenyl can be inhibited by administration of a P450 inhibitor such as Proadifen. […] It is presently believed that (−)-methamphetamine and (−)-amphetamine are inhibitors of the cell-rescuing activity of deprenyl compounds. […] Absence of MAO inhibitor activity may in fact provide a drug with fewer side effects.

SMILES strings stand for the structures.

Here are results for two compounds from patent publication US6455590B1, “Deprenyl compounds for treatment of glaucoma” (University of Toronto Innovations.Foundation, priority 1995, dated 2002).

With `C#CCN(C)C(C)Cc1ccccc1` (single isomer, unassigned; (-)) [(−)-deprenyl, N,α-dimethyl-N-2-propynylphenethylamine], the “stability depending on pH of the medium” value in data set [1] is reported as “more stable at a pH in the range of about 3-5 than at a pH of about 7”. For the same compound, the “counts of RGCL neuronal cell bodies (RGCLncbs) per mm length of retinal cross-section” value is 32.60+/−9.94 in data set [2] (crushed optic nerve, 14 days after crush, (−)-deprenyl 1 mg/kg IP every two days) and 48.39+/−8.48 /mm in data set [2] (uncrushed optic nerve, (−)-deprenyl 1 mg/kg IP every two days for 14 days). For the same compound, the “RGC^SCs as percentage of the mean value of the distribution for the uncrushed saline retinas” value in data set [2] (crushed optic nerve, 14 days, crushed saline 3.0%, FIG. 3) was 36.9+/−11.2%. In addition, in data set [2] (crushed optic nerve, 14 days, crushed saline 46%), the “numbers of neuronal cell bodies/mm in the RGCL as average percent of those in uncrushed saline retinae” value worked out at 65%. For the same compound, the “slope of FG labelled versus Nissl stained cell body counts” value in data set [2] (crushed retinas, FIG. 2) was 0.219+/−0.019. Moreover, the “mean ratio of FG labelled to Nissl stained somata” value in data set [2] (crushed retinas, crushed saline 0.003) is listed as 0.245+/−0.055. Moreover, in data set [2] (crushed retinas, estimated assuming 40-50% of RGCL neurons do not send axons to the optic nerve, crushed saline less than 10%), the “survival of RGCs at fourteen days” value was 30-40%. In addition, the “effect of Proadifen on cell-rescuing activity (prevention of cell death)” value in the data set with cell death is recorded as “Proadifen reduces the ability of (−)-deprenyl to prevent cell death”.

Regarding `C#CCN[C@H](C)Cc1ccccc1` [(−)-desmethyldeprenyl], in the data set on cell death, the “effect of Proadifen on cell-rescuing activity (prevention of cell death)” value was “does not block the cell-rescuing activity”.
